Experimental data from paper PMC11322164 (Scientific Reports, 2024).

Test system: PAO1
Assay: Salt sensitivity assay
Format: cell-based, P. aeruginosa

Polymyxin B was tested, and the MBC (CaCl2 (2.5 mM)) was 2 µM, the MIC (CaCl2 (2.5 mM)) was 2 µM and the MBC (FeCl3 (4 μM)) was 1 µM. The MIC (FeCl3 (4 μM)) was 1 µM, the MBC (KCl (4.5 mM)) was 1 µM and the MIC (KCl (4.5 mM)) was 1 µM. It also gave an MBC (MgCl2 (1 mM)) of 1 µM, an MIC (MgCl2 (1 mM)) of 1 µM and an MBC (NH4Cl (6 μM)) of 1 µM. For the same substance, the MIC (NH4Cl (6 μM)) was 1 µM, the MBC (NaCl (150 mM)) was 0.5 µM and the MIC (NaCl (150 mM)) was 0.5 µM. For the same substance, the MBC (ZnCl2 (8 mM)) was 1 µM and the MIC (ZnCl2 (8 mM)) was 1 µM.
